pEC50: −log10 of the molar value.
What follows are molecules tested on HIV-IIIb (assay: Test A: Antiviral Assays in MT4 Cells). Settings: Human immunodeficiency virus 1, IIIB, MT4, 120 h, MT-4 cells infected with HIV-IIIb (0.004 m.o.i.), 5 days of incubation, CellTiter-Glo chemiluminescence readout; read-out: EC50.
Type: cell-based
Summary of the method: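 MT-4 cells pre-infected with HIV-IIIb (0.004 m.o.i.) at 37 °C, then plated with 3-fold serially diluted compound (10 concentrations, quadruplicate, RPMI 1640/10% FBS). After 5 days at 37 °C, cell viability read by CellTiter-Glo chemiluminescence; mock-infected cells run in parallel.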

With C=Cc1c(C)c(C(OC(C)(C)C)C(=O)O)c(-c2ccc(Cl)cc2)c2ccccc12 (stereo not shown) [Compound 128, 2-tert-Butoxy-2-(1-(4-chlorophenyl)-3-methyl-4-vinylnaphthalen-2-yl)acetic acid] as the molecule, how does the pEC50 read?
Its pEC50 is 5.28.

With CCc1c(C)c(C(OC(C)(C)C)C(=O)O)c(-c2ccc(Cl)cc2)c2ccccc12 (stereo not shown) [Compound 129, 2-tert-Butoxy-2-(1-(4-chlorophenyl)-4-ethyl-3-methylnaphthalen-2-yl)acetic acid] as the molecule, how does the pEC50 read?
Its pEC50 is 6.77.

With Cc1c(C(OC(C)(C)C)C(=O)O)c(-c2ccc(Cl)cc2)c2ccccc2c1C#CCN(C)C (stereo not shown) [Compound 131, 2-tert-Butoxy-2-(1-(4-chlorophenyl)-4-(3-(dimethylamino)prop-1-ynyl)-3-methylnaphthalen-2-yl)acetic acid] as the molecule, how does the pEC50 read?
Its pEC50 is 7.21.

With Cc1c(C(OC(C)(C)C)C(=O)O)c(-c2ccc(Cl)cc2)c2ccccc2c1CCCN(C)C (stereo not shown) [Compound 132, 2-tert-Butoxy-2-(1-(4-chlorophenyl)-4-(3-(dimethylamino)propyl)-3-methylnaphthalen-2-yl)acetic acid] as the molecule, how does the pEC50 read?
Its pEC50 is 6.93.

With Cc1c(C(OC(C)(C)C)C(=O)O)c(-c2ccc(Cl)cc2)c2ccccc2c1CN(C)C (stereo not shown) [Compound 133, 2-tert-Butoxy-2-(1-(4-chlorophenyl)-4-((dimethylamino)methyl)-3-methylnaphthalen-2-yl)acetic acid] as the molecule, how does the pEC50 read?
Its pEC50 is 6.91.

Cc1c(C(OC(C)(C)C)C(=O)O)c(-c2ccc(Cl)cc2)c2ccccc2c1CN1CCOCC1 (stereo not shown) [Compound 134, 2-tert-Butoxy-2-(1-(4-chlorophenyl)-3-methyl-4-(morpholinomethyl)naphthalen-2-yl)acetic acid] was tested. Which pEC50 did it give?
Its pEC50 is 6.82.

How did the pEC50 turn out when Cc1c(C(OC(C)(C)C)C(=O)O)c(-c2ccc(Cl)cc2)c2ccccc2c1CO (stereo not shown) [Compound 135, 2-tert-Butoxy-2-(1-(4-chlorophenyl)-4-(hydroxymethyl)-3-methylnaphthalen-2-yl)acetic acid] was run?
The pEC50 was 7.35.

Cc1c(C(OC(C)(C)C)C(=O)O)c(-c2ccc(Cl)cc2)c2ccccc2c1-c1ccccc1 (stereo not shown) [Compound 136, 2-tert-Butoxy-2-(1-(4-chlorophenyl)-3-methyl-4-phenylnaphthalen-2-yl)acetic acid] was tested. Which pEC50 did it give?
The pEC50 was 6.47.

How did the pEC50 turn out when Cc1c(C(OC(C)(C)C)C(=O)O)c(-c2ccc(Cl)cc2)c2ccccc2c1-c1ccc(N(C)C)nc1 (stereo not shown) [Compound 137, 2-tert-Butoxy-2-(1-(4-chlorophenyl)-4-(6-(dimethylamino)pyridin-3-yl)-3-methylnaphthalen-2-yl)acetic acid] was run?
The pEC50 was 6.89.

With Cc1c(C(OC(C)(C)C)C(=O)O)c(-c2ccc(Cl)cc2)c2ccccc2c1-c1cccnc1 (stereo not shown) [Compound 138, 2-tert-butoxy-2-(1-(4-chlorophenyl)-3-methyl-4-(pyridin-3-yl)naphthalen-2-yl)acetic acid] as the molecule, how does the pEC50 read?
The pEC50 was 7.40.

How did the pEC50 turn out when Cc1c(C(OC(C)(C)C)C(=O)O)c(-c2ccc(Cl)cc2)c2ccccc2c1-c1cncnc1 (stereo not shown) [Compound 139, 2-tert-Butoxy-2-(1-(4-chlorophenyl)-3-methyl-4-(pyrimidin-5-yl)naphthalen-2-yl)acetic acid] was run?
Its pEC50 is 8.00.

How did the pEC50 turn out when Cc1c(C(OC(C)(C)C)C(=O)O)c(-c2ccc(Cl)cc2)c2ccccc2c1-c1ccc(Cl)cc1 (stereo not shown) [Compound 140, 2-(1,4-Bis(4-chlorophenyl)-3-methylnaphthalen-2-yl)-2-tert-butoxyacetic acid] was run?
Its pEC50 is 5.80.

How did the pEC50 turn out when Cc1c(C(OC(C)(C)C)C(=O)O)c(-c2ccc(Cl)cc2)c2ccccc2c1-c1ccc(N)nc1 (stereo not shown) [Compound 143, 2-(4-(6-Aminopyridin-3-yl)-1-(4-chlorophenyl)-3-methylnaphthalen-2-yl)-2-tert-butoxyacetic acid] was run?
Its pEC50 is 7.25.

Cc1c(C(OC(C)(C)C)C(=O)O)c(-c2ccc(Cl)cc2)c2ccccc2c1-c1ccc(=O)[nH]c1 (stereo not shown) [Compound 144, 2-tert-Butoxy-2-(1-(4-chlorophenyl)-3-methyl-4-(6-oxo-1,6-dihydropyridin-3-yl)naphthalen-2-yl)acetic acid] was tested. Which pEC50 did it give?
The pEC50 was 5.89.

With Cc1c(C(OC(C)(C)C)C(=O)O)c(-c2ccc(Cl)cc2)c2ccccc2c1-c1cnc(N)nc1 (stereo not shown) [Compound 145, 2-(4-(2-Aminopyrimidin-5-yl)-1-(4-chlorophenyl)-3-methylnaphthalen-2-yl)-2-tert-butoxyacetic acid] as the molecule, how does the pEC50 read?
The pEC50 was 7.30.

How did the pEC50 turn out when Cc1c(C(OC(C)(C)C)C(=O)O)c(-c2ccc(Cl)cc2)c2ccccc2c1-c1cnc(=O)[nH]c1 (stereo not shown) [Compound 146, 2-tert-Butoxy-2-(1-(4-chlorophenyl)-3-methyl-4-(2-oxo-1,2-dihydropyrimidin-5-yl)naphthalen-2-yl)acetic acid] was run?
Its pEC50 is 5.00.

Cc1c(C(OC(C)(C)C)C(=O)O)c(-c2ccc(Cl)cc2)c2ccccc2c1C#N (stereo not shown) [Compound 147, 2-tert-Butoxy-2-(1-(4-chlorophenyl)-4-cyano-3-methylnaphthalen-2-yl)acetic acid] was tested. Which pEC50 did it give?
The pEC50 was 5.96.

How did the pEC50 turn out when Cc1cc2ccc(Cl)cc2c(-c2ccc(Cl)cc2)c1C(OC(C)(C)C)C(=O)O (stereo not shown) [Compound 149, 2-tert-Butoxy-2-(7-chloro-1-(4-chlorophenyl)-3-methylnaphthalen-2-yl)acetic acid] was run?
The pEC50 was 6.70.

With Cc1c([C@@H](OC(C)(C)C)C(=O)O)c(-c2ccc(Cl)cc2)c2ccccc2c1Br [Compound 150A, (R)-2-(4-Bromo-1-(4-chlorophenyl)-3-methylnaphthalen-2-yl)-2-tert-butoxyacetic acid] as the molecule, how does the pEC50 read?
The pEC50 was 4.54.

With Cc1c([C@H](OC(C)(C)C)C(=O)O)c(-c2ccc(Cl)cc2)c2ccccc2c1Br [Compound 150B, (S)-2-(4-bromo-1-(4-chlorophenyl)-3-methylnaphthalen-2-yl)-2-tert-butoxyacetic acid] as the molecule, how does the pEC50 read?
The pEC50 was 6.59.

Cc1cc2ccccc2c(-c2ccc(C(F)(F)F)c3cccnc23)c1[C@H](OC(C)(C)C)C(=O)O [Compound 175] was tested. Which pEC50 did it give?
Its pEC50 is 4.70.

Cc1cc2ccc(C#CC(C)(C)N)cc2c(-c2ccc3c4c(ccnc24)CCO3)c1C(OC(C)(C)C)C(=O)O (stereo not shown) [Compound 176] was tested. Which pEC50 did it give?
Its pEC50 is 4.92.

With Cc1cc2cc(C(F)F)ccc2c(-c2ccc3c4c(ccnc24)CCO3)c1[C@H](OC(C)(C)C)C(=O)O [Compound 181, (S)-2-tert-butoxy-2-((R)-6-(difluoromethyl)-1-(2,3-dihydropyrano[4,3,2-de]quinolin-7-yl)-3-methylnaphthalen-2-yl)acetic acid] as the molecule, how does the pEC50 read?
The pEC50 was 8.30.

Cc1c([C@H](OC(C)(C)C)C(=O)O)c(-c2ccc3c4c(ccnc24)CCO3)c2ccccc2c1C(N)=O [Compound 183, (S)-2-tert-butoxy-2-((R)-4-carbamoyl-1-(2,3-dihydropyrano[4,3,2-de]quinolin-7-yl)-3-methylnaphthalen-2-yl)acetic acid] was tested. Which pEC50 did it give?
The pEC50 was 6.45.

Same assay, conditions: MT-4 cells infected with HIV-IIIb (0.004 m.o.i.), 5 days of incubation, CellTiter-Glo chemiluminescence readout; read-out: EC50

With Cc1cc2ccccc2c(C2=CC(C)(C)CCC2=O)c1[C@H](OC(C)(C)C)C(=O)O [Compound 157] as the molecule, how does the pEC50 read?
Its pEC50 is 5.00.

How did the pEC50 turn out when Cc1cc2ccccc2c(-c2cc(F)cc3cccnc23)c1[C@H](OC(C)(C)C)C(=O)O [Compound 158] was run?
The pEC50 was 4.46.

Cc1cc2ccccc2c(-c2cc(F)cc3cccnc23)c1[C@H](OC(C)(C)C)C(=O)O [Compound 159] was tested. Which pEC50 did it give?
Its pEC50 is 5.89.

How did the pEC50 turn out when Cc1cc2ccccc2c(-c2ccc(F)c3cccnc23)c1[C@H](OC(C)(C)C)C(=O)O [Compound 160] was run?
Its pEC50 is 4.44.

With Cc1cc2ccccc2c(-c2ccc3c4c(ccnc24)CCO3)c1[C@H](OC(C)(C)C)C(=O)O [Compound 161] as the molecule, how does the pEC50 read?
Its pEC50 is 5.33.

Cc1cc2cc(F)ccc2c(-c2ccc3c4c(ccnc24)CCO3)c1C(OC(C)(C)C)C(=O)O (stereo not shown) [Compound 162] was tested. Which pEC50 did it give?
The pEC50 was 5.85.

With Cc1cc2c(Cl)cccc2c(-c2ccc3c4c(ccnc24)CCO3)c1C(OC(C)(C)C)C(=O)O (stereo not shown) [Compound 163] as the molecule, how does the pEC50 read?
Its pEC50 is 4.80.

How did the pEC50 turn out when CCC(C)(C)O[C@H](C(=O)O)c1c(C)cc2ccccc2c1-c1ccc2c3c(ccnc13)CCO2 [Compound 185, (S)-2-((R)-1-(2,3-dihydropyrano[4,3,2-de]quinolin-7-yl)-3-methylnaphthalen-2-yl)-2-(tert-pentyloxy)acetic acid] was run?
Its pEC50 is 7.62.

How did the pEC50 turn out when Cc1cc2c(F)c(CN(C)C)ccc2c(-c2ccc3c4c(ccnc24)CCO3)c1[C@H](OC(C)(C)C)C(=O)O [Compound 186A, (S)-2-tert-butoxy-2-((R)-1-(2,3-dihydropyrano[4,3,2-de]quinolin-7-yl)-6-((dimethylamino)methyl)-5-fluoro-3-methylnaphthalen-2-yl)acetic acid] was run?
The pEC50 was 5.77.

With Cc1cc2c(F)c(CO)ccc2c(-c2ccc3c4c(ccnc24)CCO3)c1[C@H](OC(C)(C)C)C(=O)O [Compound 186B, (S)-2-tert-butoxy-2-((R)-1-(2,3-dihydropyrano[4,3,2-de]quinolin-7-yl)-5-fluoro-6-(hydroxymethyl)-3-methylnaphthalen-2-yl)acetic acid] as the molecule, how does the pEC50 read?
Its pEC50 is 7.62.

From patent US9102614B2, “Naphth-2-ylacetic acid derivatives to treat AIDS” (Gilead Sciences, Inc., priority 2010, dated 2015)
